Values of other authors in patent US7989600B2, “Macrolide compounds containing biotin and photo-affinity group for macrolide target identification” (GlaxoSmithKline Istrazivacki Centar Zagreb D.O.O., priority 2005, dated 2011).

System: α1-acid glycoprotein from serum
Conditions: dialysis in combination HPLC methods; Castearena et al., J Chemother. 1995

SMILES: CC[C@H]1OC(=O)[C@H](C)[C@@H](O[C@H]2C[C@@](C)(OC)[C@@H](O)[C@H](C)O2)[C@H](C)[C@@H](O[C@@H]2O[C@H](C)C[C@H](N(C)C)[C@H]2O)[C@](C)(O)C[C@@H](C)CN(C)[C@H](C)[C@@H](O)[C@]1(C)O [azithromycin]
- binding to α1-acid glycoprotein from serum: specifically binds
